The record followed here is patent publication US12071421B2, “Process for the synthesis of substituted chloromethyl dialkylphosphates” (HELSINN HEALTHCARE SA, priority 2011, dated 2024).

A short description of series [1]: Stability studies of GA1 parent acid species and its salts (degradation on storage). Here is the method: Their synthesis employed either a) neutralization of the dried diacid phosphate species and its corresponding base salts or b) a direct acid deprotection starting from the dried di(tert-butyl)-protected phosphate species. Neutralization was performed with L-histidine, magnesium salt, N-methyl-D-glucamine (dimeglumine), and L-lysine. Both procedures were tried in the synthesis of citric derivatives whereas with other acids the direct deprotection reaction was used. The figures below show the most relevant structures.
Alphabetical letters are used to denote data points on the graph that correspond to degradation percentage values over time for respective salts of the same parent compound as just described above and in Table 2 below.

Series [2] in a line: Chemical stability according to ICH guidelines under accelerated conditions (40° C.). Type of series: physicochemical. Here is the method:
Stability was tested according to ICH guidelines under accelerated conditions (40° C.).

Series [3] can be described thus: Aqueous solubility (neutral pH). Particulars: for solubility: aqueous medium. Type of series: physicochemical.
Series [4] in a line: Dog PKs study / comparative bioequivalence (IV vs oral netupitant). The format is in vivo, Beagle dogs. Here is the method:
The pharmacokinetics (PKs) study of three compounds (e.g., compound nos. 1-3 of the above Table 3), as compared to a reference compound—netupitant (orally administered), on rat and dog was conducted.
Dog PKs Study: the dogs tested in the study were Beagle dogs, body weight 8-10 kg, and 3 male dogs per group. The four PK experiments were performed in 12 naïve dogs. The dose was 3 mg/kg administered via intravenous (IV) slow injection into the left and right cephalic or left and right saphenous veins used in rotation. […] The dose was administered to each animal on the basis of the most recently recorded body weight and the volume administered was recorded for each animal. Netupitant 3 mg/kg dose was tested at 2 ml/kg in vehicle (DMSO:Ethanol:Tween80 solution=[…], v/v), dependence on its solubility. Dose was freshly prepared before each single PK experiment. Before administration, dogs were fasted 12 hr, water ad libitum. After 480 min time point blood was collected, dogs were fed. 0.5 ml blood was collected in heparinised tubes at pre-dose and at 2, 5, 15, 30 min, 1, 2, 4, 6, 8, 12, 24, 36, 48 and 72 hr after intravenous administration. […] Prepared quantification standard curve at 2, 10, 40, 100, 200, 1000 and 2000 ng/ml (diluted from methanol stock with methanol containing 1% formic acid). […] Dog plasma samples were analyzed by using an API4000 MS coupled with HPLC. […]

Molecules are shown by their SMILES. ≈ marks a conversion by molar mass, not a printed value.

As for `Cc1ccccc1-c1cc(N2CC[N+](C)(COP(=O)([O-])O)CC2)ncc1N(C)C(=O)C(C)(C)c1cc(C(F)(F)F)cc(C(F)(F)F)c1` [1. NaOH, 3 eq. 2. Fumaric acid, 1 eq.], the results for the Degradation entry in series [1] (12 days) and in series [1] (14 days) were “+1.80% in 12 days (in argon)” and “+1.95% in 14 days (in air)”, respectively.

Regarding `Cc1ccccc1-c1cc(N2CC[N+](C)(COP(=O)(O)O)CC2)ncc1N(C)C(=O)C(C)(C)c1cc(C(F)(F)F)cc(C(F)(F)F)c1` [Compound 1], the “Chemical Stability” value in series [2] is on record as “medium”. Also, the solubility (as a rule, the dissolved amount per volume that the medium holds) in series [3] (pH 7) lay within 10000 to 15000 µg/mL. Besides, the “bioequivalence to oral netupitant at the same dose” value in series [4] (IV) is “bioequivalent”.

Turning to `Cc1ccccc1-c1cc(N2CCN(C)CC2)[n+]([O-])cc1N(C)C(=O)C(C)(C)c1cc(C(F)(F)F)cc(C(F)(F)F)c1` [Compound 4], the “Chemical Stability” value in series [2] is listed as “medium”. Moreover, in series [3] (pH 7), the solubility was roughly 600 µg/mL (≈ 1010 µM).

On to `Cc1ccccc1-c1cc([N+]2([O-])CCN(C)CC2)ncc1N(C)C(=O)C(C)(C)c1cc(C(F)(F)F)cc(C(F)(F)F)c1` [Compound 5, reference compound], for which the “Chemical Stability” value in series [2] is given as “medium”. Moreover, the solubility in series [3] (pH 7) was roughly 1000 µg/mL (≈ 1680 µM).

Turning to `Cc1ccccc1-c1cc([N+]2([O-])CCN(C)CC2)[n+]([O-])cc1N(C)C(=O)C(C)(C)c1cc(C(F)(F)F)cc(C(F)(F)F)c1` [Compound 6], the “Chemical Stability” value in series [2] was “low”.

As to `CC(=O)OC[N+]1(C)CCN(c2cc(-c3ccccc3C)c(N(C)C(=O)C(C)(C)c3cc(C(F)(F)F)cc(C(F)(F)F)c3)cn2)CC1` [Compound 7], in series [2], the “Chemical Stability” value is “low”. The “Solubility (neutral pH)” value in series [3] is given as “insoluble”.

With `CCCC(=O)OC[N+]1(C)CCN(c2cc(-c3ccccc3C)c(N(C)C(=O)C(C)(C)c3cc(C(F)(F)F)cc(C(F)(F)F)c3)cn2)CC1` [Compound 8], the “Chemical Stability” value in series [2] is given as “Low”. The “Solubility (neutral pH)” value in series [3] is reported as “insoluble”.

For `Cc1ccccc1-c1cc(N2CCN(C)CC2)ncc1N(C)C(=O)C(C)(C)c1cc(C(F)(F)F)cc(C(F)(F)F)c1` [Compound 9, 2-(3,5-bis(trifluoromethyl)phenyl)-N,2-dimethyl-N-(6-(4-methylpiperazin-1-yl)-4-(o-tolyl)pyridin-3-yl)propanamide, reference compound], the solubility in series [3] (pH 7, unit inferred) was 250 µg/mL (≈ 432 µM). Also, the AUC(0-t) in series [4] (male, beagle, plasma, PO, 3 mg/kg, read-out: Mean AUC0-t (converted)) is 5120 ng·h/mL.

Turning to `Cc1ccccc1-c1cc(N2CC[N+](C)(COP(=O)([O-])O)CC2)ncc1N(C)C(=O)C(C)(C)c1cc(C(F)(F)F)cc(C(F)(F)F)c1` [HBr, 48%, 4 eq.], in series [1], the “Product stability (comment)” value is “Product degrades rapidly”.

Turning to `Cc1ccccc1-c1cc(N2CC[N+](C)(COP(=O)([O-])O)CC2)ncc1N(C)C(=O)C(C)(C)c1cc(C(F)(F)F)cc(C(F)(F)F)c1` [L-lysine, 1 eq.], the Degradation entry was “+0.48% in 12 days (in argon)” in series [1] (12 days) and “+0.69% in 14 days (in air)” in series [1] (14 days).

With `Cc1ccccc1-c1cc(N2CC[N+](C)(COP(=O)([O-])O)CC2)ncc1N(C)C(=O)C(C)(C)c1cc(C(F)(F)F)cc(C(F)(F)F)c1` [N-methyl-D-glucamine (Meglumine), 2 eq.], the Degradation result is listed as “+0.87% in 6 days (in air)” in series [1] (6 days) and “+1.52% in 11 days (in argon)” in series [1] (11 days).

On to `Cc1ccccc1-c1cc(N2CC[N+](C)(COP(=O)(O)O)CC2)ncc1N(C)C(=O)C(C)(C)c1cc(C(F)(F)F)cc(C(F)(F)F)c1.Cl.[Cl-]` [chloride hydrochloride HCl salt of GA1, 4-(5-(2-(3,5-bis(trifluoromethyl)phenyl)-N,2-dimethylpropanamido)-4-(o-tolyl)pyridin-2-yl)-1-methyl-1-((phosphonooxy)methyl)piperazin-1-ium chloride hydrochloride], for which the “resistance to decoupling of the oxo-phosphonomethyl and reversion of the active moiety to its parent state” value in series [1] is recorded as “tremendously resistant”.

On to `Cc1ccccc1-c1cc(N2CC[N+](C)(COP(=O)([O-])O)CC2)ncc1N(C)C(=O)C(C)(C)c1cc(C(F)(F)F)cc(C(F)(F)F)c1` [parent acid species], for which the Degradation result in series [1] (1 week) is recorded as “over 8”. Further, in series [1] (6 months), the Degradation result was “over 65%” and the total degradation is 7.0300.
